Holding throughout (assay): fluorescence titration
Assay [1] concerns G4 (DNA, G4) TTTTGGGGTTTT
The conditions noted are these: K+ 10 mM, Mg2+ 1 mM; 50 mM Tris-borate pH 8.3 (TB), 25 °C; 1:1 model.

Assay [2] has as its system G8 (DNA, G4) TTTTGGGGGGGGTTTT
The conditions noted are these: K+ 10 mM, Mg2+ 1 mM; 50 mM Tris-borate pH 8.3 (TB), 25 °C; 1:1 model.

For assay [3], the system named is G4T4G4 (DNA, G4) GGGGTTTTGGGG
The conditions noted are these: K+ 5 mM, Li+ 95 mM; 10 mM lithium cacodylate pH 7.2 (5K), 25 °C; 1:1 model.

Ka data for 1 compound are collected here from article PMC4163640 (2014).

Consider `CCc1c(C)c2cc3nc(cc4nc(cc5c(CC)c(C)c(cc1[nH]2)n5C)C(C)=C4CCC(=O)O)C(CCC(=O)O)=C3C`, for which the Ka entry in assay [1] is on record as “(1.4 ± 0.2) × 10^6 L·mol^-1”; in assay [2] it was “(1.7 ± 0.2) × 10^6 L·mol^-1”; in assay [3], “(1.26 ± 0.07) × 10^7 L·mol^-1”.
